System: MCF-7 breast cancer cells
Assay: Microarray gene expression analysis (Agilent whole human genome 4 x 44K; compound vs DMSO, LIMMA log2 fold change)
Format: cell-based

Oc1cccc(-c2nc(N3CCOCC3)c3oc4ncccc4c3n2)c1 [PI-103]
PDGFRB log2FC (gene PDGFRB (5159), apoptosis genes): 0.024 | PEG3 log2FC (gene PEG3 (5178), apoptosis genes): 0.129 | PEG10 log2FC (gene PEG10 (23089), apoptosis genes): -0.104 | PF4 log2FC (gene PF4 (5196), apoptosis genes): -0.033 | PHLDA3 log2FC (gene PHLDA3 (23612), apoptosis genes): 0.113 | PIK3CG log2FC (gene PIK3CG (5294), apoptosis genes): -0.004 | PKP1 log2FC (gene PKP1 (5317), apoptosis genes): 0.031 | PLEKHG5 log2FC (gene PLEKHG5 (57449), apoptosis genes): 0.199 | PLSCR3 log2FC (gene PLSCR3 (57048), apoptosis genes): 0.125 | POLB log2FC (gene POLB (5423), apoptosis genes): -0.249 | log2FC (gene POLD4 (Gene 57804), cell cycle genes): 0.0256 | POR log2FC (gene POR (5447), apoptosis genes): 0.107 | POU3F4 log2FC (gene POU3F4 (5456), apoptosis genes): -0.017 | POU4F1 log2FC (gene POU4F1, apoptosis genes): 0.019 | log2FC (gene PPAT (Gene 10606), cell cycle genes): 0.08 | log2FC (gene PPP1CA (Gene 5499), cell cycle genes): -0.18 | log2FC (gene PPP2CA (Gene 5515), cell cycle genes): -0.52 | PPP2R1A log2FC (gene PPP2R1A (5518), apoptosis genes): 0.062 | PRAMEF8 log2FC (gene PRAMEF8 (391002), apoptosis genes): 0.060 | PRAMEF10 log2FC (gene PRAMEF10 (343071), apoptosis genes): 0.251 | log2FC (gene PRKACB (Gene 5567), cell cycle genes): 0.52 | log2FC PRKAG3 (gene PRKAG3 (Gene 53632), cell cycle genes): -0.0237 | PRKRA log2FC (gene PRKRA (8575), apoptosis genes): -0.093 | PRLR log2FC (gene PRLR (5618), apoptosis genes): 0.00543 | PROC log2FC (gene PROC (5624), apoptosis genes): 0.030 | PROP1 log2FC (gene PROP1 (5626), apoptosis genes): 0.324 | PSMA1 log2FC (gene PSMA1 (5682), apoptosis genes): -0.030 | log2FC (gene PSMA2 (Gene 5683), cell cycle genes): 0.17 | log2FC (gene PSMA3 (Gene 5684), cell cycle genes): 0.14 | PSMA5 log2FC (gene PSMA5 (5686), apoptosis genes): -0.147 | log2FC PSMA5 (gene PSMA5 (Gene 5686), cell cycle genes): -0.15 | PSMA7 log2FC (gene PSMA7 (5688), apoptosis genes): -2.082 | log2FC PSMA7 (gene PSMA7 (Gene 5688), cell cycle genes): -2.08 | PSMB3 log2FC (gene PSMB3 (5691), apoptosis genes): 0.053 | log2FC (gene PSMB4 (Gene 5692), cell cycle genes): 0.17 | PSMB7 log2FC (gene PSMB7 (5695), apoptosis genes): -0.149 | log2FC PSMB7 (gene PSMB7 (Gene 5695), cell cycle genes): -0.15 | PSMB8 log2FC (gene PSMB8 (5696), apoptosis genes): -0.00568 | PSMC4 log2FC (gene PSMC4 (5704), apoptosis genes): -0.023 | log2FC PSMC4 (gene PSMC4 (Gene 5704), cell cycle genes): -0.0233 | PSMD2 log2FC (gene PSMD2 (5708), apoptosis genes): 0.00374 | PSMD13 log2FC (gene PSMD13 (5719), apoptosis genes): -0.172 | log2FC (gene PSMD14 (Gene 10213), cell cycle genes): 0.15 | log2FC (gene PSME1 (Gene 5720), cell cycle genes): 0.31 | PSME2 log2FC (gene PSME2 (5721), apoptosis genes): 0.039 | log2FC (gene PTTG1 (Gene 9232), cell cycle genes): -0.21 | PYCARD log2FC (gene PYCARD (29108), apoptosis genes): -0.121 | log2FC (gene RAB11FIP3 (Gene 9727), cell cycle genes): -0.14 | log2FC RAD51C (gene RAD51C (Gene 5889), cell cycle genes): -0.24 | log2FC RAE1 (gene RAE1 (Gene 8480), cell cycle genes): -0.15 | RAF1 log2FC (gene RAF1 (5894), apoptosis genes): -0.081 | log2FC (gene RALA (Gene 5898), cell cycle genes): 0.34 | log2FC (gene RALB (Gene 5899), cell cycle genes): 0.08 | RAMP2 log2FC (gene RAMP2 (10266), apoptosis genes): 0.059 | log2FC RANGAP1 (gene RANGAP1 (Gene 5905), cell cycle genes): -0.09 | RAPSN log2FC (gene RAPSN (5913), apoptosis genes): -0.146 | RARB log2FC (gene RARB (5915), apoptosis genes): 0.00425 | RASSF6 log2FC (gene RASSF6 (166824), apoptosis genes): 0.020 | log2FC (gene RBBP8 (Gene 5932), cell cycle genes): 0.34 | log2FC (gene RBL1 (Gene 5933), cell cycle genes): 0.17 | log2FC (gene RBM7 (Gene 10179), cell cycle genes): 0.23 | log2FC (gene RCC1 (Gene 1104), cell cycle genes): -0.14 | log2FC REEP4 (gene REEP4 (Gene 80346), cell cycle genes): 0.28 | RET log2FC (gene RET (5979), apoptosis genes): -0.025 | RHOT2 log2FC (gene RHOT2 (89941), apoptosis genes): 0.051 | log2FC RPA2 (gene RPA2 (Gene 6118), cell cycle genes): -0.25 | RPS3 log2FC (gene RPS3 (6188), apoptosis genes): -0.043 | RPS6KA2 log2FC (gene RPS6KA2 (6196), apoptosis genes): 0.189 | log2FC (gene RPS6KB1 (Gene 6198), cell cycle genes): 0.25 | RRN3 log2FC (gene RRN3 (653390), apoptosis genes): 0.004 | log2FC (gene RSPO1 (Gene 284654), cell cycle genes): -0.11 | RYR2 log2FC (gene RYR2 (6262), apoptosis genes): -0.075 | S100A9 log2FC (gene S100A9 (6280), apoptosis genes): 0.057 | S100A14 log2FC (gene S100A14 (57402), apoptosis genes): 0.033 | log2FC (gene SART1 (Gene 9092), cell cycle genes): -0.00235 | SCIN log2FC (gene SCIN (85477), apoptosis genes): -0.013 | log2FC (gene SEH1L (Gene 81929), cell cycle genes): -0.57 | SEMA5A log2FC (gene SEMA5A (9037), apoptosis genes): -0.022 | log2FC SENP2 (gene SENP2 (Gene 59343), cell cycle genes): -0.06 | SERINC3 log2FC (gene SERINC3 (10955), apoptosis genes): 0.115 | SERPINE1 log2FC (gene SERPINE1 (5054), apoptosis genes): -0.018 | log2FC (gene SESN1 (Gene 27244), cell cycle genes): -0.06 | SHF log2FC (gene SHF (90525), apoptosis genes): 0.016 | SKIL log2FC (gene SKIL (6498), apoptosis genes): 0.039 | log2FC SKIL (gene SKIL (Gene 6498), cell cycle genes): 0.04 | log2FC (gene SLBP (Gene 7884), cell cycle genes): 0.11 | SLC25A6 log2FC (gene SLC25A6 (293), apoptosis genes): -0.018 | log2FC SLC26A8 (gene SLC26A8 (Gene 116369), cell cycle genes): -0.065 | SLC40A1 log2FC (gene SLC40A1 (30061), apoptosis genes): -0.00212 | SMAD1 log2FC (gene SMAD1 (4086), apoptosis genes): -0.215 | SMNDC1 log2FC (gene SMNDC1 (10285), apoptosis genes): -0.319 | SOD1 log2FC (gene SOD1 (6647), apoptosis genes): 0.105 | SOS1 log2FC (gene SOS1 (6654), apoptosis genes): 0.010 | SOX8 log2FC (gene SOX8 (30812), apoptosis genes): -0.456 | log2FC SPO11 (gene SPO11 (Gene 23626), cell cycle genes): 0.0237 | SPTAN1 log2FC (gene SPTAN1 (6709), apoptosis genes): 0.362 | log2FC (gene SRC (Gene 6714), cell cycle genes): -0.35 | log2FC (gene STAG1 (Gene 10274), cell cycle genes): 0.32 | STK3 log2FC (gene STK3 (6788), apoptosis genes): 0.109 | SULF1 log2FC (gene SULF1 (23213), apoptosis genes): -0.171 | log2FC (gene SUPT5H (Gene 6829), cell cycle genes): 0.00774 | log2FC (gene SUV39H2 (Gene 79723), cell cycle genes): -0.56 | SYCP2 log2FC (gene SYCP2 (10388), apoptosis genes): 0.019 | log2FC SYCP2 (gene SYCP2 (Gene 10388), cell cycle genes): 0.02 | log2FC SYCP3 (gene SYCP3 (Gene 50511), cell cycle genes): -0.03 | log2FC (gene TAF2 (Gene 6873), cell cycle genes): 0.21 | log2FC TAF6 (gene TAF6 (Gene 6878), cell cycle genes): 0.22 | log2FC (gene TAOK2 (Gene 9344), cell cycle genes): -0.25 | TEK log2FC (gene TEK (7010), apoptosis genes): -0.024 | log2FC (gene TEX14 (Gene 56155), cell cycle genes): 0.17 | log2FC (gene TEX15 (Gene 56154), cell cycle genes): 0.23 | TFAP2D log2FC (gene TFAP2D (83741), apoptosis genes): 0.021 | log2FC (gene TGFA (Gene 7039), cell cycle genes): -0.53 | TGFB2 log2FC (gene TGFB2 (7042), apoptosis genes): -0.026 | log2FC TGFB2 (gene TGFB2 (Gene 7042), cell cycle genes): -0.0258 | THEM4 log2FC (gene THEM4 (117145), apoptosis genes): -0.280 | log2FC THOC5 (gene THOC5 (Gene 8563), cell cycle genes): 0.0165 | TMBIM4 log2FC (gene TMBIM4 (51643), apoptosis genes): -0.154 | log2FC (gene TMEM67 (Gene 91147), cell cycle genes): 0.17 | TMEM102 log2FC (gene TMEM102 (284114), apoptosis genes): 0.338 | TNFRSF1B log2FC (gene TNFRSF1B (7133), apoptosis genes): -0.040 | TNFRSF8 log2FC (gene TNFRSF8 (943), apoptosis genes): 0.099 | TNFRSF10C log2FC (gene TNFRSF10C (8794), apoptosis genes): 0.011 | TNFSF8 log2FC (gene TNFSF8 (944), apoptosis genes): -0.011 | TNFSF9 log2FC (gene TNFSF9 (8744), apoptosis genes): 0.192 | TNFSF10 log2FC (gene TNFSF10 (8743), apoptosis genes): 0.00148 | TNFSF12 log2FC (gene TNFSF12 (8742), apoptosis genes): 0.353 | TNFSF14 log2FC (gene TNFSF14 (8740), apoptosis genes): 0.027 | TNFSF15 log2FC (gene TNFSF15 (9966), apoptosis genes): 0.054 | TNFSF18 log2FC (gene TNFSF18 (8995), apoptosis genes): 0.071 | log2FC (gene TP73 (Gene 7161), cell cycle genes): -0.25 | log2FC (gene TPD52L1 (Gene 7164), cell cycle genes): 0.15 | TPX2 log2FC (gene TPX2 (22974), apoptosis genes): -0.00173 | TRAF2 log2FC (gene TRAF2 (7186), apoptosis genes): -0.347 | TRAF3IP2 log2FC (gene TRAF3IP2 (10758), apoptosis genes): -0.037 | log2FC TRIP13 (gene TRIP13 (Gene 9319), cell cycle genes): -0.38 | log2FC (gene TUBGCP6 (Gene 85378), cell cycle genes): -0.19 | TXNDC5 log2FC (gene TXNDC5 (81567), apoptosis genes): -0.039 | log2FC TYMS (gene TYMS (Gene 7298), cell cycle genes): -0.08 | UBD log2FC (gene UBD (10537), apoptosis genes): -0.037 | UBE2V2 log2FC (gene UBE2V2 (7336), apoptosis genes): -0.365 | UNC13B log2FC (gene UNC13B (10497), apoptosis genes): 0.046 | VDAC2 log2FC (gene VDAC2 (7417), apoptosis genes): -0.094 | VIM log2FC (gene VIM (7431), apoptosis genes): 0.122 | VIP log2FC (gene VIP (7432), apoptosis genes): -0.302 | VNN1 log2FC (gene VNN1 (8876), apoptosis genes): -0.010 | log2FC (gene VRK1 (Gene 7443), cell cycle genes): 0.16 | WNK3 log2FC (gene WNK3 (65267), apoptosis genes): -0.015 | log2FC (gene WTAP (Gene 9589), cell cycle genes): -0.47 | log2FC (gene YY1AP1 (Gene 55249), cell cycle genes): 0.31 | ZBTB16 log2FC (gene ZBTB16 (7704), apoptosis genes): -0.00549 | log2FC ZC3H12D (gene ZC3H12D (Gene 85313), cell cycle genes): -0.0743 | log2FC (gene ZC3HC1 (Gene 51530), cell cycle genes): 0.16 | ZNF205 log2FC (gene ZNF205 (7755), apoptosis genes): -0.247 | ZNF443 log2FC (gene ZNF443 (10224), apoptosis genes): -0.204 | log2FC (gene ZNF503 (Gene 84858), cell cycle genes): -0.12 | ZNF622 log2FC (gene ZNF622 (90441), apoptosis genes): -0.120
